Consider 7 compounds from patent EP3461349A1, “NOVEL DITERPENE GLYCOSIDES AS SWEETENERS OR SWEETENER ENHANCER” (Analyticon Discovery GmbH, priority 2017, dated 2019).

Series [1] concerns panel of 4 panelists. The series can be described thus: Organoleptic test against sucrose and baiyunoside (taste panel). It is filed as in vivo. Details: key to compared to sucrose*: 3: sweeter than the control solution; 2: sweetness comparable with the control solution; 1: less sweet than the control solution but still sweet. The conditions noted are these: for comment: cooling effect / comment: sweetness relative to Baiyunoside / comment: bitterness / off-taste / comment: lingering / persistence of sweet taste: 0.4 mg/ml (400 ppm) in non-carbonated mineral water; for comment: bitterness / off-taste / comment: lingering / persistence of sweet taste: compounds compared with Baiyunoside; for compared to sucrose*: sweetness score, 0.4 mg/ml (400 ppm) in non-carbonated mineral water vs sucrose 20 mg/ml, 4 panelists. The source says:
Organoleptic test of the compounds of formula (I) against sucrose and baiyunoside

Series [2] is described as follows: Solubility in non-carbonated mineral water at the test concentration. The conditions noted are these: 0.4 mg/ml (400 ppm) in non-carbonated mineral water.
Method: The isolated pure compounds were dissolved in non-carbonated mineral water ("Fonsana Quelle") in a concentration of 0.4 mg/ml (400 ppm).
For series [3] the following is noted: quoted from Tanaka et al.; cited from earlier work.
The conditions of series [4]: literature; printed as "often >100x sweeter than sucrose"; cited from earlier work.

Read-outs that look alike come from different tables or passages of the source.

As to `CC1=C(CCc2ccoc2)C2(C)CCC(OC3OC(COS(=O)(=O)O)C(O)C(O)C3O)C(C)(C)C2CC1` (centres unmarked) [Compound C, Baiyunol-3-glucosyl-6'-sulfate], in series [1], the “comment: cooling effect” value is recorded as “Shows a remarkable cooling effect”, the “comment: sweetness relative to Baiyunoside” value is given as “Sweeter”, the “comment: bitterness / off-taste” value is reported as “less bitter” and the “comment: lingering / persistence of sweet taste” value (from here on “comment: lingering / persistence”) is listed as “less lingering”. In series [1], the “compared to sucrose*” value stood at 3.

With Baiyunoside [reference compound], the solubility entry in series [2] was “not completely soluble”. In series [3], the duration of sweetness entry is reported as “more than one h” and the “sweetness relative to sucrose” value is on record as “about 500 times”. For the same compound, in series [1], the “comment: bitterness / off-taste” value is “bitter and licorice off-taste”; the “comment: lingering / persistence” value was “very long lingering and persistent sweet taste”. For the same compound, the “sweetness compared with the sucrose solution (in words)” value in series [1] (Baiyunoside solution at nominal 0.4 mg/ml, not completely dissolved, vs sucrose 20 mg/ml) is recorded as “comparable to the sweetness of the sucrose solution”.

In the case of `C[C@H](CC[C@@H](O[C@@H]1O[C@H](CO[C@@H]2O[C@H](CO)[C@@H](O)[C@H](O)[C@H]2O)[C@@H](O)[C@H](O)[C@H]1O[C@@H]1O[C@H](CO)[C@@H](O)[C@H](O)[C@H]1O)C(C)(C)O)[C@H]1CC[C@@]2(C)[C@@H]3CC=C4[C@@H](CC[C@H](O[C@@H]5O[C@H](CO[C@@H]6O[C@H](CO)[C@@H](O)[C@H](O)[C@H]6O)[C@@H](O)[C@H](O)[C@H]5O)C4(C)C)[C@]3(C)[C@H](O)C[C@]12C` [mogroside V], the “sweetness relative to sucrose” value in series [4] is given as over 100 x.

Turning to `CC1=C(CCc2ccoc2)C2(C)CCC(OC3OC(COS(=O)(=O)O)C(O)C(O)C3OC3OCC(O)C(O)C3O)C(C)(C)C2CC1` (centres unmarked) [Compound A, Baiyunoside-6'-sulfate], in series [1], the “comment: cooling effect” value is “Shows a remarkable cooling effect”, the “comment: sweetness relative to Baiyunoside” value is given as “Sweeter”, the “comment: bitterness / off-taste” value is on record as “less bitter” and the “comment: lingering / persistence” value was “less lingering”. In series [1], the “compared to sucrose*” value is given as 3.

With `CC1=C(CCc2ccoc2)C2(C)CCC(OC3OC(CO)C(O)C(OS(=O)(=O)O)C3OC3OCC(O)C(O)C3O)C(C)(C)C2CC1` (centres unmarked) [Compound B, Baiyunoside-3'-sulfate], in series [1], the “comment: cooling effect” value is reported as “Shows a remarkable cooling effect”, the “comment: sweetness relative to Baiyunoside” value is “Sweeter”, the “comment: bitterness / off-taste” value is “less bitter” and the “comment: lingering / persistence” value is given as “less lingering”. Moreover, the “compared to sucrose*” value in series [1] came out at 3.

For the compound `C[C@H](CC[C@@H](O[C@@H]1O[C@H](CO[C@@H]2O[C@H](CO)[C@@H](O)[C@H](O)[C@H]2O)[C@@H](O)[C@H](O)[C@H]1O[C@@H]1O[C@H](CO)[C@@H](O)[C@H](O)[C@H]1O)C(C)(C)O)[C@H]1CC[C@@]2(C)[C@@H]3CC=C4[C@@H](CC[C@H](O[C@@H]5O[C@H](CO)[C@@H](O[C@@H]6O[C@H](CO)[C@@H](O)[C@H](O)[C@H]6O)[C@H](O)[C@H]5O)C4(C)C)[C@]3(C)[C@H](O)C[C@]12C` [iso-mogroside V], in series [4], the “sweetness relative to sucrose” value is over 100 x.

As to “Baiyunol-3-(2'-arabinopyranosyl)-glucoside [Compound D]”, the solubility entry in series [2] was “not completely soluble but better soluble than Baiyunoisde”. In addition, in series [1], the “comment: cooling effect” value is “Shows a remarkable cooling effect”, the “comment: sweetness relative to Baiyunoside” value is given as “Sweeter”, the “comment: bitterness / off-taste” value is given as “as bitter as Baiyunoside” and the “comment: lingering / persistence” value is “less lingering”. In series [1], the “compared to sucrose*” value came out at 3.
